{"source": "paper PMC11796354", "about": "“Autoinducer-2 enhances the defense of Vibrio furnissii against oxidative stress and DNA damage by modulation of c-di-GMP signaling via a two-component system” (mBio, 2025)", "target": "AsrK (vfu_B00258)", "experiment": "ITC in borate-depleted buffer; also inhibits autokinase activity of purified full-length AsrK", "type": "binding, Vibrio furnissii"}
{"smiles": "CC(=O)C(=O)[C@@H](O)CO", "note": "[DPD, 4,5-dihydroxy-2,3-pentanedione]", "values": [{"measurement": "Kd", "value": "38 ± 4", "unit": "nM"}]}
